Test system: BALB/c-derived LNCs
Test: In vivo inhibition of proliferation of LNC of BALB/c mice immunized with mCDR1
Settings: maximum % inhibition; 200 μg s.c. in PBS concomitant with immunization; LNC tested ten days later
Description: To this end, BALB/c and SJL mice were immunized with mCDR1 and mCDR3, respectively. The immunizing murine peptides were injected (10 μg/mouse) in CFA intradermally in the hind footpads. Concomitant with the immunization, groups of BALB/c mice were injected subcutaneously (s.c.) with 200 μg in PBS of hCDR1 and groups of SJL mice were similarly injected with hCDR3. Ten days after the immunization, mice were sacrificed and their lymph nodes were harvested and the cells were tested for their ability to proliferate following triggering with the immunizing peptides. Briefly, LNCs of immunized mice (0.5×10^6/well) were cultured (in triplicates) in the presence of different concentrations (1-20 μg/well) of the murine immunizing peptides in enriched RPMI-1640 medium supplemented with 1% normal mouse serum. Following four days of incubation, ^3H-thymidine was added for additional 16 hours. Cells were then harvested and radioactivity was counted using a β-counter.
The inhibition was calculated based on the proliferation of LNCs of mice that were not treated with the inhibitory peptides hCDR1 and hCDR3. It can be seen that hCDR1 and hCDR3 were capable of inhibiting the proliferative responses to the immunizing murine CDR peptides.

GYYWSWIRQPPGKGEEWIG (Human) [hCDR1, 19-mer peptide based on the CDR1 of the heavy chain of the human 16/6Id mAb]
% Inhibition of the proliferation of BALB/c-derived LNCs to mCDR1: 55%
